Common to all, as to assay type: in vivo, Swiss Albino mice
In assay [1] the test system is Rac1. The assay can be described thus: Rac1 concentration in serum and tumor tissue of mice by SPR. The following applies: tumor tissue lysate; 300 μm FGDWS; Mean ± SD; p-value 0.0001. Background: Surface plasmon resonance follows binding to a sensor surface in real time, without labels.
Assay [2] concerns P38α. The assay can be described thus: p38α concentration in serum and tumor tissue of mice by SPR. Particulars: 300 μm FGDWS, Mean ± SD.
Assay [3] deals with Phospho-LIMK1 (T-508). The assay can be described thus: Phospho-LIMK1 concentration in serum and tumor tissue of mice by SPR. The following applies: 300 μm FGDWS, Mean ± SD.
The mark [4] stands for this setting: tumor tissue lysate, p-value 0.001.

No end group written: not given here.

In turn, FGDWS [FGDWS] showed a Rac1 concentration in assay [1] of 0.72 ± 0.02 ng/µL. For the same substance, the P38α concentration in assay [2] (serum, day 45, p-value 0.004) turned out to be 3.13 ± 0.96 ng/µL; in assay [2] (setting [4]), 0.97 ± 0.06 ng/µL. In addition, the Phospho-LIMK1 concentration in assay [3] (serum, day 45, p-value 0.008) is 7.58 ± 2.25 ng/µL; in assay [3] (setting [4]), 8.01 ± 1.22 ng/µL.

Source of the values: paper PMC11500341 (Scientific Reports, 2024).
